According to patent US7795315B2, “N-(2-amino-phenyl)-amide derivatives” (Hoffman-La Roche Inc., priority 2008, dated 2010):

Assays:
Type in all cases: cell-based
[1] = test system: klf2 promoter-luciferase construct in A204 cells; assay: klf2 reporter gene induction (p21 versus klf2 selectivity); details: SNDX-275 p21/klf2 ratio defined as 1.0; for p21/klf2 (RP3): relative selectivity compared with SNDX-275: 3 micromolar; for p21/klf2 (RP10): relative selectivity compared with SNDX-275: 10 micromolar
Procedure: (§1) The novel compounds of the present invention were tested for their ability to induce p21 gene expression using a reporter gene assay involving HeLa cells transfected with a p21 promoter-luciferase construct. The p21 promoter contained the Sp1/Sp3 binding site for HDAC but not the upstream p53 binding site. Briefly, the day before transfection, HeLa cells were seeded at 11,000 cells/well in a 96-well culture plate and incubated at 37 degrees Celsius in 5% CO2 overnight. For transfection, the medium was removed and replaced with 100 microliters/well transfection media previously prepared as follows: 5 microliters serum-free DMEM, 0.15 microliters Fugene 6 reagent, 40 ng p21-luc, 10 ng GFP were mixed gently and incubated at room temperature for 30 minutes; then 98 microliters DMEM (with 10% FBS, 1% penicillin and streptomycin) was added to the DNA:Fugene 6 reagent complex and mixed gently. After incubating the cells for 24 hours at 37 degrees Celsius in 5% CO2, fresh media and test compounds were added to the wells and the cells further incubated for 15 hours at 37 degrees Celsius in 5% CO2. Cells were lysed by adding 80 microliters/well of a cell culture lysis reagent (Promega). 50 microliters of each lysate was taken for GFP detection using an excitation wavelength of 486 nm and detection at 527 nm. 100 microliters Luciferase assay reagent (Promega) was then added to every 20 microliters cell lysate for luminometer detection. […] Induction activity for specific representative compounds can be found in Table 4.
The novel compounds of the present invention were tested for their ability to induce klf2 gene expression using a reporter gene assay involving A204 cells transfected with a klf2 promoter-luciferase construct. The klf2 promoter contained the MEF2 binding site for HDAC3/class IIa HDAC complex. Briefly, the day before transfection, A204 cells were seeded at 11,000 cells/well in a 96-well culture plate and incubated at 37 degrees Celsius in 5% CO2 overnight. For transfection, the medium was removed and replaced with 100 microliters/well transfection media previously prepared as follows: 5 microliters serum-free DMEM, 0.15 microliters Fugene 6 reagent, 40 ng klf2-luc, 10 ng GFP were mixed gently and incubated at room temperature for 30 minutes; then 98 microliters DMEM (with 10% FBS, 1% penicillin and streptomycin) was added to the DNA:Fugene 6 reagent complex and mixed gently. After incubating the cells for 24 hours at 37 degrees Celsius in 5% CO2, fresh media and test compounds were added to the wells and the cells further incubated for 15 hours at 37 degrees Celsius in 5% CO2. Finally, 10 ng/ml TNF-α was added and the cells further incubated for 4 hours. Cells were lysed by adding 80 microliters/well of a cell culture lysis reagent (Promega). 50 microliters of each lysate was taken for GFP detection using an excitation wavelength of 486 nm and detection at 527 nm. 100 microliters Luciferase assay reagent (Promega) was then added to every 20 microliters cell lysate for luminometer detection.

[2] = test system: p21 promoter-luciferase construct in HeLa cells; assay: p21 reporter gene induction; details: 3 micromolar, 15 hours, relative to SNDX-275
Procedure: as §1

[3] = test system: HCT-116 colon cancer cells; assay: Antiproliferative activity, growth inhibition (MTS/WST assay); details: Homo sapiens, 72 hour growth inhibition, read-out: GI50 HCT116
Procedure: The novel compounds of the present invention were tested for their ability to inhibit growth of various cancer cell lines (HeLa, MCF7, U2OS, HepG2, HL60, HCT-116) using in vitro growth inhibition assays described below.
Cells were seeded in 96-well culture plates (200 microliters/well at different seeding concentrations depending on cell type) and incubated overnight at 37 degrees Celsius in 5% CO2. After adding compound dilutions to the cells (DMSO concentration kept below 0.5%), the cells were incubated at 37 degrees Celsius in 5% CO2 for 72 hours. The effects on proliferation were determined by addition of MTS reagent (Promega) according to the manufacturer's instruction, followed by incubation for 2 hours at 37 degrees Celsius in 5% CO2, and finally recording the absorbance at 490 nm using an ELISA plate reader.
Similar to MTS assay except that the developer is the CCK-8 reagent (Dojindo) and the plate reader is set to 450 nm absorbance.
GI50 values against HCT-116 colon cancer cells for specific representative compounds can be found in Table 4.

Row | Structure (SMILES) | p21/klf2 (RP3): relative selectivity compared with SNDX-275 [1] | p21/klf2 (RP10): relative selectivity compared with SNDX-275 [1] | p21 (RP3): relative induction potency compared with SNDX-275 [2] | GI50 [3]
1 | Nc1ccccc1NC(=O)/C=C/c1ccc(C(NCCN2CCCCC2)C(=O)Nc2ccc(Br)cc2)cc1 (stereo not drawn) [Example 4-31, (E)-N-(2-Amino-phenyl)-3-{4-[(4-bromo-phenylcarbamoyl)-(2-piperidin-1-yl-ethylamino)-methyl]-phenyl}-acrylamide] | 1.2 | 1.2 | 178% | 200 nM
2 | Nc1ccccc1NC(=O)/C=C/c1ccc(C(NCCO)C(=O)Nc2ccc(C(F)(F)F)cc2)cc1 (stereo not drawn) [Example 4-69, (E)-N-(2-Amino-phenyl)-3-{4-[(2-hydroxy-ethylamino)-(4-trifluoromethyl-phenylcarbamoyl)-methyl]-phenyl}-acrylamide] | 1.0 | 2.3 | 117% | 1700 nM
3 | CN(C)CCNC(C(=O)Nc1ccc(Br)cc1)c1ccc(/C=C/C(=O)Nc2ccccc2N)cc1 (stereo not drawn) [Example 9-3, (E)-N-(2-Amino-phenyl)-3-{4-[(4-bromo-phenylcarbamoyl)-(2-dimethylamino-ethylamino)-methyl]-phenyl}-acrylamide] | 1.6 | 1.7 | 152% | 300 nM
4 | Nc1ccccc1NC(=O)/C=C/c1ccc(C(NCCN2CCCCC2)C(=O)Nc2ccc(C(F)(F)F)cc2)cc1 (stereo not drawn) [Example 4-2, (E)-N-(2-Amino-phenyl)-3-{4-[(2-piperidin-1-yl-ethylamino)-(4-trifluoromethyl-phenylcarbamoyl)-methyl]-phenyl}-acrylamide] | 2.2 | 3.6 | 324% | 700 nM
5 | N#Cc1ccc(NC(=O)C(NCCN2CCOCC2)c2ccc(/C=C/C(=O)Nc3ccccc3N)cc2)cc1 (stereo not drawn) [Example 4-3, (E)-N-(2-Amino-phenyl)-3-{4-[(4-cyano-phenylcarbamoyl)-(2-morpholin-4-yl-ethylamino)-methyl]-phenyl}-acrylamide] | 0.8 | 1.2 | 99% | 1000 nM
6 | Nc1ccccc1NC(=O)/C=C/c1ccc(C(NCCN2CCOCC2)C(=O)Nc2ccc(Br)cc2)cc1 (stereo not drawn) [Example 9-1, (E)-N-(2-Amino-phenyl)-3-{4-[(4-bromo-phenylcarbamoyl)-(2-morpholin-4-yl-ethylamino)-methyl]-phenyl}-acrylamide] | 1.0 | 2.2 | 144% | 1000 nM
7 | CN(C)CCNC(C(=O)Nc1ccc(C(F)(F)F)cc1F)c1ccc(/C=C/C(=O)Nc2ccccc2N)cc1 (stereo not drawn) [Example 4-24, (E)-N-(2-Amino-phenyl)-3-{4-[(2-dimethylamino-ethylamino)-(2-fluoro-4-trifluoromethyl-phenylcarbamoyl)-methyl]-phenyl}-acrylamide] | 1.5 | 1.5 | 162% | 2100 nM
8 | CC(C)c1ccc(NC(=O)C(NCCN2CCOCC2)c2ccc(/C=C/C(=O)Nc3ccccc3N)cc2)cc1 (stereo not drawn) [Example 4-37, (E)-N-(2-Amino-phenyl)-3-{4-[(4-isopropyl-phenylcarbamoyl)-(2-morpholin-4-yl-ethylamino)-methyl]-phenyl}-acrylamide] | 1.1 | 1.7 | 60% | 1000 nM
9 | Nc1ccccc1NC(=O)/C=C/c1ccc(C(OCCN2CCOCC2)C(=O)Nc2ccc(C(F)(F)F)cc2)cc1 (stereo not drawn) [Example 19, (E)-N-(2-Amino-phenyl)-3-{4-[(2-morpholin-4-yl-ethoxy)-(4-trifluoromethyl-phenylcarbamoyl)-methyl]-phenyl}-acrylamide] | 1.6 | 3.6 | 98% | 2200 nM
10 | Nc1ccccc1NC(=O)/C=C/c1ccc(C(NCCN2CCCCC2)C(=O)Nc2ccc(C(F)(F)F)cc2F)cc1 (stereo not drawn) [Example 4-35, (E)-N-(2-Amino-phenyl)-3-{4-[(2-fluoro-4-trifluoromethyl-phenylcarbamoyl)-(2-piperidin-1-yl-ethylamino)-methyl]-phenyl}-acrylamide] | 2.0 | 3.0 | 140% | 1300 nM
11 | Nc1ccccc1NC(=O)/C=C/c1ccc(C(C(=O)Nc2ccc(C(F)(F)F)cc2)N2CCNCC2)cc1 (stereo not drawn) [Example 9-7, (E)-N-(2-Amino-phenyl)-3-{4-[piperazin-1-yl-(4-trifluoromethyl-phenylcarbamoyl)-methyl]-phenyl}-acrylamide] | 0.5 | 2.1 | 54% | 2500 nM
12 | Nc1ccccc1NC(=O)/C=C/c1ccc(C(NCCN2CCSCC2)C(=O)Nc2ccc(C(F)(F)F)cc2)cc1 (stereo not drawn) [Example 4-14, (E)-N-(2-Amino-phenyl)-3-{4-[(2-thiomorpholin-4-yl-ethylamino)-(4-trifluoromethyl-phenylcarbamoyl)-methyl]-phenyl}-acrylamide] | 1.2 | 5.1 | 84% | 600 nM
13 | Nc1ccccc1NC(=O)/C=C/c1ccc(C(NCCCN2CCOCC2)C(=O)Nc2ccc(C(F)(F)F)cc2)cc1 (stereo not drawn) [Example 4-5, (E)-N-(2-Amino-phenyl)-3-{4-[(3-morpholin-4-yl-propylamino)-(4-trifluoromethyl-phenylcarbamoyl)-methyl]-phenyl}-acrylamide] | 1.2 | 4.5 | 241% | 800 nM
14 | CN(C)CCNC(C(=O)Nc1ccc(C(F)(F)F)c(F)c1)c1ccc(/C=C/C(=O)Nc2ccccc2N)cc1 (stereo not drawn) [Example 4-49, (E)-N-(2-Amino-phenyl)-3-{4-[(2-dimethylamino-ethylamino)-(3-fluoro-4-trifluoromethyl-phenylcarbamoyl)-methyl]-phenyl}-acrylamide] | 1.5 | 1.5 | 128% | 1400 nM
15 | CN(C)C(C(=O)Nc1ccc(C(F)(F)F)cc1)c1ccc(/C=C/C(=O)Nc2ccccc2N)cc1 (stereo not drawn) [Example 9-6, (E)-N-(2-Amino-phenyl)-3-{4-[dimethylamino-(4-trifluoromethyl-phenylcarbamoyl)-methyl]-phenyl}-acrylamide] | 0.9 | 1.7 | 47% | 2700 nM
